This passage reports IC50 results from the Kinase Knowledgebase extract (Sharma et al. 2016).

The target of this assay is EGFR (UniProt P00533). In words: Inhibition of EGFR Kinase Activity.
Chain of EGFR (P00533 whole entry, looked up): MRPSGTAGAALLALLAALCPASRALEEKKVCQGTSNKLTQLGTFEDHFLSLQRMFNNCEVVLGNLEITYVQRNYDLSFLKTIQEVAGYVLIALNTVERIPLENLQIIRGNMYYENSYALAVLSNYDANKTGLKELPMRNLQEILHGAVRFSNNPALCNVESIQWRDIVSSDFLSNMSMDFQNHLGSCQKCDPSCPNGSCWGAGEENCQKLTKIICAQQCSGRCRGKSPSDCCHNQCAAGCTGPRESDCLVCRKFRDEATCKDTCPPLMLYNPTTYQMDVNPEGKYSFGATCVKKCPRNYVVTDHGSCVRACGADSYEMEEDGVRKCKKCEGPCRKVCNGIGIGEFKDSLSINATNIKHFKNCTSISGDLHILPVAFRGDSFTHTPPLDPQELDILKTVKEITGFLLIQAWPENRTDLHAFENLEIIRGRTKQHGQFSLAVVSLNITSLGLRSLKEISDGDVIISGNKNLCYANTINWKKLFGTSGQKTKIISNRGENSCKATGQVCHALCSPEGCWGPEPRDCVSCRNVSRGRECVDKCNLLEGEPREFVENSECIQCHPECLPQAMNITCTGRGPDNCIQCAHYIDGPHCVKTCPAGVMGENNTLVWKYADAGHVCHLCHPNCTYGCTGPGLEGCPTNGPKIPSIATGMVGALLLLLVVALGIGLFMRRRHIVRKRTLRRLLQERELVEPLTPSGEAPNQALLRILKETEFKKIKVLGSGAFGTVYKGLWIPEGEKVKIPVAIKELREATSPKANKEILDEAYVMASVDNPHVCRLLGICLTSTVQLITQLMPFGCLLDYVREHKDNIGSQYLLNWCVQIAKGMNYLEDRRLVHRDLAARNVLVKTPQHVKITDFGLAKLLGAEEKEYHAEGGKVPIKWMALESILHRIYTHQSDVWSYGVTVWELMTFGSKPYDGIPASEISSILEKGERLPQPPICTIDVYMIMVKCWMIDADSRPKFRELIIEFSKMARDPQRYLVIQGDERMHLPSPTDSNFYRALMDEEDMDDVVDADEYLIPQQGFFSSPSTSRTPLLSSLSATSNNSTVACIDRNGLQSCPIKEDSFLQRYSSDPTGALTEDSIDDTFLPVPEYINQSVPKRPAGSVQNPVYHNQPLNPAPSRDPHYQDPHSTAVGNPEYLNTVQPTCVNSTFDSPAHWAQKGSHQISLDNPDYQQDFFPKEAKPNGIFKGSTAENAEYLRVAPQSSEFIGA
In the case of `CN(c1ccc2NN(=Cc2c1)Cc3ccccn3)c4ncnc(Nc5ccc(NC(=O)C=C)cc5)n4`, the IC50 was less than 50 µM. Molecule `C=CCN(c1ccc(OCCO)cc1)c1ncnc(Nc2cccc(NC(=O)C=C)c2)n1` displayed an IC50 of less than 50 µM. Molecule `C=CC(=O)Nc1cccc(Nc2ncnc(Nc3ccc(OCc4cccc(F)c4)cc3)n2)c1` returned a concentration for half-maximal inhibition (IC50) of less than 50 µM. The same measure for `C=CC(=O)Nc1ccc(Nc2ncnc(N(CC)n3c(=O)n(C(=O)C(C)(C)C)c4ccccc43)n2)cc1`: less than 50 µM. Molecule `C=CC(=O)Nc1ccc(Nc2ncnc(N(C)c3ccc(OCC)c(OCC)c3)n2)cc1` yielded an IC50 of less than 50 µM.

On to `C=CC(=O)Nc1ccc(Nc2ncnc(NN3CCCc4c(Cl)cccc43)n2)cc1`, for which the IC50 is less than 50 µM. In turn, `C=CC(=O)Nc1ccc(Nc2ncnc(Nc3ccc(OCCC)c(OCCC)c3)n2)cc1` showed a half-maximal inhibitory concentration (IC50) of less than 50 µM.

As to `C=CCN(c1cccc(Cl)c1)c1ncnc(Nc2cccc(NC(=O)C=C)c2)n1`, the IC50 was less than 50 µM. As to `CC#CC(=O)Nc1cccc(Nc2ncnc(N(C)c3ccc(OC)c(OCCOC)c3)n2)c1`, the IC50 is less than 50 µM. Next, `CC#CC(=O)Nc1cccc(Nc2ncnc(Nc3ccc(OCc4ccccc4)c(Cl)c3)n2)c1`: less than 50 µM; `CC#CC(=O)Nc1cc(Nc2ncnc(Nc3ccc(OCc4ccccc4)c(Cl)c3)n2)ccc1OCCCN1CCOCC1`: less than 50 µM. `C=CC(=O)Nc1cccc(Nc2ncnc(N(C)c3cccc(C)c3)n2)c1` yielded a concentration for half-maximal inhibition (IC50) of less than 50 µM.

Consider `C=CC(=O)Nc1ccc(Nc2ncnc(N(C)C3CC3c3ccccc3)n2)cc1` (stereo unspecified), for which the IC50 is less than 50 µM. For the molecule `C=CC(=O)N(OCCCC1CCN(C)CC1)c1cccc(Nc2ncnc(NN3CCCc4ccc(Cl)cc43)n2)c1`, the concentration for half-maximal inhibition (IC50) is less than 50 µM. Next, `C=CC(=O)Nc1ccc(Nc2ncnc(Nc3ccc(OC)cc3)n2)cc1`: less than 50 µM; `C=CC(=O)Nc1cccc(Nc2ncnc(Nc3ccc(OCCO)cc3)n2)c1`: less than 50 µM; `C=CCN(c1ncnc(Nc2cccc(NC(=O)C#CC)c2)n1)c1cc(Cl)cc2ccccc12`: less than 50 µM. Next, `CC#CC(=O)Nc1cccc(Nc2ncnc(N(CC)c3ccc(OCC)c(OCC)c3)n2)c1`: less than 50 µM; `C=CC(=O)Nc1cccc(Nc2ncnc(Nn3c(=O)n(C(=O)C(C)(C)C)c4ccccc43)n2)c1`: less than 50 µM; `C=CC(=O)Nc1ccc(Nc2ncnc(N(C)c3cc(Cl)cc4ccccc34)n2)cc1`: less than 50 µM.

For the molecule `CC#CC(=O)Nc1cccc(Nc2ncnc(N(CC)C3CC3c3ccc(Cl)cc3)n2)c1` (stereo unspecified), the IC50 was less than 50 µM. The same measure for `C=CC(=O)Nc1ccc(Nc2ncnc(N(CC)c3ccc(OCc4ccccc4)cc3)n2)cc1`: less than 50 µM. The molecule `O=C(/C=C/c1cccc(Nc2ncnc(Nc3ccc4c(cnn4Cc4ccccc4)c3)n2)c1)NCCCN1CCOCC1` registered a half-maximal inhibitory concentration (IC50) of less than 50 µM. The same measure for `C=CC(=O)Nc1ccc(Nc2ncnc(N(C)c3ccc(OCc4ccccc4)cc3)n2)cc1`: less than 50 µM; for `C=CC(=O)Nc1cccc(Nc2ncnc(N3CCCc4ccc(Cl)cc43)n2)c1`: less than 50 µM; for `CC#CC(=O)Nc1cccc(Nc2ncnc(Nc3cccc(C)c3)n2)c1`: less than 50 µM. Next, `C=CC(=O)Nc1cccc(Nc2ncnc(N(CC)c3ccc(OCCC)c(OCCC)c3)n2)c1`: less than 50 µM. The same measure for `C=CC(=O)Nc1ccc(Nc2ncnc(N(C)n3c(=O)n(C(=O)C(C)(C)C)c4ccccc43)n2)cc1`: less than 50 µM. `C#CCC(=O)Nc1cccc(Nc2ncnc(NN3CCCc4ccc(C(F)(F)F)cc43)n2)c1` had an IC50 of less than 50 µM. `C=CC(=O)Nc1cccc(Nc2ncnc(N(CC)c3cc(Cl)cc4ccccc34)n2)c1` yielded an IC50 of less than 50 µM. The molecule `C=CC(=O)Nc1cccc(Nc2ncnc(Nc3cccc(Br)c3)n2)c1` registered an IC50 of less than 50 µM.

The molecule `C=CC(=O)Nc1ccc(Nc2ncnc(N(CC)C3CC3c3ccc(Cl)cc3)n2)cc1` (stereo unspecified) yielded a half-inhibitory concentration (IC50) of less than 50 µM.

The molecule `C#CCC(=O)Nc1cccc(Nc2ncnc(NN3CCCc4ccc(Cl)cc43)n2)c1` showed a concentration for half-maximal inhibition (IC50) of less than 50 µM. The same measure for `C=CC(=O)Nc1ccc(Nc2ncnc(Nc3ccc(OCC)c(OCC)c3)n2)cc1`: less than 50 µM.

Molecule `CC#CC(=O)Nc1cc(Nc2ncnc(N(C)c3ccc(OCc4ccccc4)c(Cl)c3)n2)ccc1OCCCC1CCN(C)CC1` yielded a half-maximal inhibitory concentration (IC50) of less than 50 µM.

For the molecule `C=CC(=O)Nc1ccc(Nc2ncnc(Nc3ccc(OCCO)cc3)n2)cc1`, the half-maximal inhibitory concentration (IC50) is less than 50 µM. In turn, `C=CC(=O)Nc1cccc(Nc2ncnc(N(C)c3ccc(OC)c(OC)c3)n2)c1` came in with an IC50 of less than 50 µM.

As to `C=CC(=O)Nc1cccc(Nc2ncnc(Nc3ccc(OCCC)c(OCCC)c3)n2)c1`, the concentration for half-maximal inhibition (IC50) was less than 50 µM. Next, `C=CCN(c1cccc(CC(=O)OC)c1)c1ncnc(Nc2cccc(NC(=O)C#CC)c2)n1`: less than 50 µM; `C=CC(=O)Nc1cccc(Nc2ncnc(Nc3ccc(OCc4cccc(C(F)(F)F)c4)c(OC)c3)n2)c1`: less than 50 µM; `C=CCN(c1ccc(OCCOC)c(OC)c1)c1ncnc(Nc2cccc(NC(=O)C#CC)c2)n1`: less than 50 µM.

In turn, `CC#CC(=O)Nc1cccc(Nc2ncnc(N(C)n3c(=O)[nH]c4ccccc43)n2)c1` returned an IC50 of less than 50 µM. The same measure for `C=CCN(c1ccc(OCCOC)c(OC)c1)c1ncnc(Nc2ccc(NC(=O)C=C)cc2)n1`: less than 50 µM; for `C=CC(=O)Nc1cccc(Nc2ncnc(N(C)c3cc(Cl)ccc3C)n2)c1`: less than 50 µM. The same measure for `C=CC(=O)Nc1ccc(Nc2ncnc(Nn3c(=O)[nH]c4ccccc43)n2)cc1`: less than 50 µM.

On to `CC#CC(=O)Nc1cccc(Nc2ncnc(N(C)c3cc(OC)c(OC)c(OCCN4CCOCC4)c3)n2)c1`, for which the half-inhibitory concentration (IC50) is less than 50 µM. The same measure for `CC#CC(=O)Nc1cccc(Nc2ncnc(Nc3cccc(C(N)=O)c3)n2)c1`: less than 50 µM; for `C=CCN(c1ccc(F)c(Cl)c1)c1ncnc(Nc2ccc(NC(=O)C=C)cc2)n1`: less than 50 µM. For `C=CC(=O)Nc1cccc(Nc2ncnc(Nc3cc(Cl)ccc3C)n2)c1`, the half-inhibitory concentration (IC50) was less than 50 µM. Take `C=CC(=O)Nc1cccc(Nc2ncnc(N(C)n3c(=O)n(C(=O)C(C)(C)C)c4ccccc43)n2)c1`: the half-inhibitory concentration (IC50) was less than 50 µM. As to `C=CC(=O)Nc1ccc(Nc2ncnc(NN3CCCc4cc(C)ccc43)n2)cc1`, the IC50 was less than 50 µM. `C=CCN(c1ncnc(Nc2ccc(NC(=O)C=C)cc2)n1)C1CC1c1ccc(Cl)cc1` (stereo unspecified) came in with an IC50 of less than 50 µM. The same measure for `C=CCN(c1ccc(F)c(Cl)c1)c1ncnc(Nc2cccc(NC(=O)C=C)c2)n1`: less than 50 µM. The same measure for `C=CC(=O)Nc1cccc(Nc2ncnc(N(CC)c3ccc4c(cnn4Cc4ccccc4)c3)n2)c1`: less than 50 µM; for `CC#CC(=O)Nc1cccc(Nc2ncnc(N(CC)c3ccc(C(=O)OC)cc3)n2)c1`: less than 50 µM. With `CC#CC(=O)Nc1cccc(Nc2ncnc(N(CC)C3CC3c3ccccc3)n2)c1` (stereo unspecified), the half-inhibitory concentration (IC50) is less than 50 µM. In turn, `CC#CC(=O)Nc1cccc(Nc2ncnc(N(CC)c3cccc(C(N)=O)c3)n2)c1` had a half-inhibitory concentration (IC50) of less than 50 µM. The same measure for `C=CCN(c1ccc2c(cnn2Cc2ccccc2)c1)c1ncnc(Nc2cccc(NC(=O)C#CC)c2)n1`: less than 50 µM.

For the molecule `C=CC(=O)N(CCCN1CCOCC1)c1cccc(Nc2ncnc(N(C)C3CC3c3ccccc3)n2)c1` (stereo unspecified), the half-inhibitory concentration (IC50) was less than 50 µM. Regarding `C=CCN(c1ccc2NN(=Cc2c1)Cc3ccccn3)c4ncnc(Nc5ccc(NC(=O)C=C)cc5)n4`, the half-inhibitory concentration (IC50) is less than 50 µM. Molecule `C=CC(=O)Nc1cccc(Nc2ncnc(N(C)c3ccc(F)c(Cl)c3)n2)c1` gave an IC50 of less than 50 µM. Next, `CC#CC(=O)Nc1cccc(Nc2ncnc(N(C)c3cccc4ccccc34)n2)c1`: less than 50 µM; `C=CC(=O)Nc1cc(Nc2ncnc(N(C)c3ccc4c(cnn4Cc4ccccc4)c3)n2)ccc1OCCCC1CCN(C)CC1`: less than 50 µM. As to `C=CCN(c1cc(OC)c(OC)c(OCCN2CCOCC2)c1)c1ncnc(Nc2ccc(NC(=O)C=C)cc2)n1`, the 50% inhibitory concentration (IC50) is less than 50 µM. The same measure for `C=CCN(c1ncnc(Nc2cccc(NC(=O)C#CC)c2)n1)n1c(=O)[nH]c2ccccc21`: less than 50 µM; for `CC#CC(=O)Nc1cccc(Nc2ncnc(N(C)C3CC3c3ccc(Cl)cc3)n2)c1` (stereo unspecified): less than 50 µM; for `CC#CC(=O)Nc1cccc(Nc2ncnc(N(CC)c3ccc4c(cnn4Cc4ccccc4)c3)n2)c1`: less than 50 µM.

On to `CC#CC(=O)Nc1cc(Nc2ncnc(Nc3ccc4c(cnn4Cc4ccccc4)c3)n2)ccc1OC`, for which the IC50 was less than 50 µM.

In the case of `C=CC(=O)Nc1ccc(Nc2ncnc(N(C)c3cccc(C(N)=O)c3)n2)cc1`, the IC50 is less than 50 µM.

`C=CC(=O)Nc1ccc(Nc2ncnc(N(CC)c3cccc(C)c3)n2)cc1` gave an IC50 of less than 50 µM. The molecule `CCN(c1ccc2NN(=Cc2c1)Cc3ccccn3)c4ncnc(Nc5cccc(NC(=O)C#CC)c5)n4` came in with an IC50 of less than 50 µM. `C=CC(=O)Nc1cccc(Nc2ncnc(N(CC)c3cccc(Cl)c3)n2)c1` registered a 50% inhibitory concentration (IC50) of less than 50 µM.

In turn, `CC#CC(=O)Nc1cccc(Nc2ncnc(N(C)c3cccc(CC(=O)OC)c3)n2)c1` came in with a 50% inhibitory concentration (IC50) of less than 50 µM.

For `C=CC(=O)Nc1cccc(Nc2ncnc(N(CC)c3ccc(OCc4ccccc4)cc3)n2)c1`, the IC50 was less than 50 µM. On to `C=CC(=O)Nc1cccc(Nc2ncnc(Nc3cc(OC)c(OC)c(OCCN4CCOCC4)c3)n2)c1`, for which the IC50 was less than 50 µM. `C=CC(=O)Nc1ccc(Nc2ncnc(N(CC)c3ccc(OCCOC)c(OC)c3)n2)cc1` yielded an IC50 of less than 50 µM.

Molecule `C=CC(=O)N(CCCN1CCOCC1)c1cccc(Nc2ncnc(Nc3ccc(F)c(Cl)c3)n2)c1` came in with an IC50 of less than 50 µM. Next, `C=CC(=O)Nc1cccc(Nc2ncnc(N(C)c3ccc4c(cnn4Cc4ccccc4)c3)n2)c1`: less than 50 µM; `CC#CC(=O)Nc1cccc(Nc2ncnc(N(C)c3ccc(OCC)c(OCC)c3)n2)c1`: less than 50 µM; `C=CCN(c1cccc(C)c1)c1ncnc(Nc2ccc(NC(=O)C=C)cc2)n1`: less than 50 µM.

Regarding `C=CC(=O)Nc1ccc(Nc2ncnc(Nc3ccc(OCCOC)c(OC)c3)n2)cc1`, the IC50 was less than 50 µM. For `CC#CC(=O)Nc1cccc(Nc2ncnc(N(CC)c3cccc4ccccc34)n2)c1`, the 50% inhibitory concentration (IC50) was less than 50 µM. `C=CC(=O)Nc1cccc(Nc2ncnc(N(CC)c3cccc(CC(=O)OC)c3)n2)c1` returned an IC50 of less than 50 µM. The same measure for `CC#CC(=O)Nc1cccc(Nc2ncnc(N(CC)c3cc(Cl)ccc3C)n2)c1`: less than 50 µM. Regarding `C=CC(=O)Nc1ccc(Nc2ncnc(N(CC)c3cc(Cl)cc4ccccc34)n2)cc1`, the half-inhibitory concentration (IC50) is less than 50 µM.

For the molecule `C=CC(=O)Nc1cccc(Nc2ncnc(Nc3ccc4c(cnn4Cc4ccccn4)c3)n2)c1`, the IC50 is less than 50 µM.

Broadly, the IC50 is the concentration at which inhibition is half-maximal.
